Results filed as inconclusive are left out. Calls of active or inactive are those of the source. How the calls were made is not given here.
Assays:
Test in all cases: viability reduction measured by resazurin – cell-based, Alamar Blue fluorescence, multiple timepoints, mechanism study for HRAS target identification project, profiling panel (AID 652144)
Settings in all cases: Cancer/normal cell panel viability, 8-48 h
[1] = tested on: HT-29
[2] = tested on: HUVEC
[3] = tested on: CCRF-CEM
[4] = tested on: HeLA
[5] = tested on: SNB-75
[6] = tested on: LOX-IMVI
[7] = tested on: SNB-19
[8] = tested on: SR
[9] = tested on: C2C12
[10] = tested on: U-251

SMILES	outcome [1]	outcome [2]	outcome [3]	outcome [4]	outcome [5]	outcome [6]	outcome [7]	outcome [8]	outcome [9]	outcome [10]	AC50 [1]	AC50 [2]	AC50 [3]	AC50 [4]	AC50 [5]	AC50 [6]	AC50 [7]	AC50 [8]	AC50 [9]	AC50 [10]
Cc1onc(C(=O)N2CCN(C(c3ccncc3)c3ccncc3)CC2)c1[N+](=O)[O-]	inactive	inactive	inactive	inactive	inactive	inactive	inactive	inactive	inactive	inactive	–	–	–	–	–	–	–	–	–	–
CC(C)(C)OC(=O)NCCOCCOCCOc1ccc(N(C(=O)CCl)C(C(=O)NCCc2ccccc2)c2cccs2)cc1Cl (centres undefined)	–	–	–	–	–	–	–	–	–	–	457 nM	13.7 µM	86.5 nM	650 nM	686 nM	83.4 nM	1720 nM	95.1 nM	442 nM	1350 nM
CCC(=O)N(c1ccc(OC)c(Cl)c1)C(C(=O)NCCc1ccccc1)c1cccs1 (centres undefined)	–	–	–	–	–	inactive	inactive	–	–	inactive	> 70000 nM (inactive)	–	–	> 70000 nM (inactive)	–	–	–	–	–	–
Cc1onc(C(=O)N2CCN(C(c3ccc(Cl)cc3)c3ccc(Cl)cc3)CC2)c1[N+](=O)[O-]	–	inactive	–	–	–	–	–	–	–	–	963 nM	–	144 nM	–	687 nM	103 nM	–	142 nM	–	> 70000 nM (inactive)
C#CCCCC(=O)NCCOCCOCCOc1ccc(N(C(=O)CCl)C(C(=O)NCCc2ccccc2)c2cccs2)cc1Cl (centres undefined)	–	–	–	–	–	–	–	–	–	–	2860 nM	–	997 nM	4490 nM	3560 nM	421 nM	4450 nM	885 nM	5420 nM	6810 nM
COc1ccc(N(C(=O)CCl)C(C(=O)NCCc2ccccc2)c2cccs2)cc1Cl (centres undefined)	–	–	–	–	–	–	–	–	–	–	162 nM	8.94 µM	78.5 nM	547 nM	286 nM	40.5 nM	1170 nM	61.8 nM	842 nM	896 nM
COC(=O)c1ccc([C@@H]2c3[nH]c4ccccc4c3C[C@@H](C(=O)OC)N2C(=O)CCl)cc1	–	–	–	–	–	–	–	–	–	–	177 nM	–	50.2 nM	573 nM	355 nM	31 nM	–	32.9 nM	101 nM	1060 nM

From PubChem BioAssay AID652144 (Broad Institute, 2013)
